The record followed here is patent US9006487B2, “Amine-containing lipids and uses thereof” (Massachusetts Institute of Technology, priority 2005, dated 2015).

The test deals with cos-7 cells. The test can be described thus: DNA transfection: luciferase expression relative to Lipofectamine 2000. In kind it is cell-based. As to conditions: for Luciferase expression as a percentage of that achieved using Lipofectamine 2000: 300 ng Luciferase DNA per well, luciferase assay after 48 hours; for luciferase expression (second part of table, values relative to LIPO2000): 300 ng of DNA per well. The method, then:
14,000 cos-7 cells (ATCC, Manassas, Va.) were seeded into each well of a solid white or clear 96 well plate (Corning-Costar, Kennebunk, Me.) and allowed to attached overnight in growth medium, composed of: 500 ml phenol red minus DMEM, 50 ml heat inactivated FBS, 5 ml penicillin/streptomycin (Invitrogen, Carlsbad, Calif.).
A small liquot of lipid was tranferred to an Eppendorf tube. Based on the mass of the lipid in the tube, sterile 25 mM sodium acetate buffer was added to each tube to yield a concentration of 60 mg/ml. The resulting mixture was vortexed for approximately 20 minutes until the lipid was fully dissolved. DNA was prepared based on 300 ng DNA per well of a 96-well plate. 291 μg of Lc DNA was dissolved in 9210 μl of 25 mM sodium acetate buffer. Aliquots of 30 μl of DNA solution were added to each well expect for the last column which was reserved for the Lipo2000 standard. For the last column of the plate, 61 μg of DNA was added to 1940 μl Optimem. 150 μl of media/Optimem was added to each well of plates. 50 μl of lipid solution was aliquoted into wells of robot plate. The following amounts were aliquoted to obtain the correct ratios of DNA to lipid:
In quadruplicate, 30 μl of lipid was aliquoted onto DNA in four rows for each ratio. For the Lipo2000 control (2.5 w/w ratio to DNA), 152.5 μg of Lipo sample was aliquoted into 1847.5 μl of Optimem. 30 μl of this solution was aliquoted onto DNA in the Optimem in the last columns of each plate. The plates were incubated for 15-20 minutes, and then 36.5 μl of lipid+DNA complexes was transferred into 150 μl of media/Optimem, then add to cells. The media was aspirated off the cells, and 105 μl of the lipid/DNA/media/Optimem solution was added to the cells. The luciferase assay was performed after 48 hours.
Luminescence was analyzed using bright-glo assay kits (Promega). Briefly, 100 μl of bright-glo solution was added to each well of the microtiter plate containing media and cells. Luminescence was measured using a Mithras Luminometer (Berthold, Oak Ridge, Tenn.). In some cases, a neutral density filter (Chroma, Brattleboro, Vt.) was used to prevent saturation of the luminometer. A standard curve for Luciferase was generated by titration of Luciferase enzyme (Promega) into growth media in white microtiter plates. Luciferase in ng per well are calculated for each of the lipids at 2.5 w/w, 5 w/w, 10 w/w, 15 w/w, 20 w/w, and 25 w/w lipid to DNA based on the standard curve.
The table below summarizes the data as a % of the luciferase activity obtained from the use of Lipofectamine 2000. The table indicates the best lipids for transfection.

For `CCCCCCCCCCCCCCOC(=O)CC[N+](C)(CCC(=O)OCCCCCCCCCCCCCC)CCC1OCCO1.[I-]` [QF6], the “Luciferase expression as a percentage of that achieved using Lipofectamine 2000” value (shortened to “Luciferase expression as a percentage”) (lipid/DNA 2.5 w/w) is given as 0.0%; the “Luciferase expression as a percentage” value (lipid/DNA 5 w/w) turned out to be 0.0%; the “Luciferase expression as a percentage” value (lipid/DNA 10 w/w) amounted to 0.0%; the “Luciferase expression as a percentage” value (lipid/DNA 15 w/w) is on record as 0.0%; the “Luciferase expression as a percentage” value (lipid/DNA 20 w/w) was 0.0%; the “Luciferase expression as a percentage” value (lipid/DNA 25 w/w) came to 0.0%.
Take `CCCCCCCCCCCCNC(=O)CCN(CCC(=O)NCCCCCCCCCCCC)C(C)(CO)CO` [ND26]: the “luciferase expression (second part of table, values relative to LIPO2000)” value is on record as 13.4 (lipid/DNA 2.5 w/w); 2.3 (lipid/DNA 5 w/w); 0.1 (lipid/DNA 10 w/w); 0.0 (lipid/DNA 15 w/w); 0.0 (lipid/DNA 20 w/w); 0.0 (lipid/DNA 25 w/w).
As to `CCCCCCCCCCCCCCOC(=O)CCN(CCC(=O)OCCCCCCCCCCCCCC)C1CCC(O)CC1` (centres unmarked) [LF38], the “Luciferase expression as a percentage” value (lipid/DNA 2.5 w/w) stood at 0.8%; the “Luciferase expression as a percentage” value (lipid/DNA 5 w/w) is on record as 0.9%; the “Luciferase expression as a percentage” value (lipid/DNA 10 w/w) turned out to be 0.9%; the “Luciferase expression as a percentage” value (lipid/DNA 15 w/w) was 0.9%; the “Luciferase expression as a percentage” value (lipid/DNA 20 w/w) is listed as 0.8%; the “Luciferase expression as a percentage” value (lipid/DNA 25 w/w) stood at 1.0%.
On to `CCCCCCCCCCOC(=O)CCN1CCCN(CCC(=O)OCCCCCCCCCC)CC1` [LB70], for which the “Luciferase expression as a percentage” value is given as 0.1% (lipid/DNA 2.5 w/w); 0.1% (lipid/DNA 5 w/w); 0.1% (lipid/DNA 10 w/w); 0.1% (lipid/DNA 15 w/w); 0.1% (lipid/DNA 20 w/w); 0.1% (lipid/DNA 25 w/w).
For `CCCCCCCCCCCCCCCCCCOC(=O)CCN(CCOCC)CCC(=O)OCCCCCCCCCCCCCCCCCC` [LH11], the “Luciferase expression as a percentage” value amounted to 0.0% (lipid/DNA 2.5 w/w); 0.0% (lipid/DNA 5 w/w); 0.0% (lipid/DNA 10 w/w); 0.0% (lipid/DNA 15 w/w); 0.0% (lipid/DNA 20 w/w); 0.0% (lipid/DNA 25 w/w).
`CCCCCCCCCCOC(=O)CCN(CCC(=O)OCCCCCCCCCC)CC(OC)OC` [LB13]: the “Luciferase expression as a percentage” value reads like this: (lipid/DNA 2.5 w/w) 0.1%; (lipid/DNA 5 w/w) 0.1%; (lipid/DNA 10 w/w) 0.1%; (lipid/DNA 15 w/w) 0.1%; (lipid/DNA 20 w/w) 0.1%; (lipid/DNA 25 w/w) 0.1%.
Consider `CCCCCCCCCCCCCCOC(=O)CCN(CCC(=O)OCCCCCCCCCCCCCC)CC(C)(C)CO` [LF33], for which the “Luciferase expression as a percentage” value is, setting by setting: (lipid/DNA 2.5 w/w) 0.1%; (lipid/DNA 5 w/w) 0.1%; (lipid/DNA 10 w/w) 0.1%; (lipid/DNA 15 w/w) 0.1%; (lipid/DNA 20 w/w) 0.1%; (lipid/DNA 25 w/w) 0.1%.
For `CCCCCCCCCCCCCCOC(=O)CC[N+](C)(CCCOC)CCC(=O)OCCCCCCCCCCCCCC.[I-]` [QF1], the “Luciferase expression as a percentage” value (lipid/DNA 2.5 w/w) was found to be 0.4%; the “Luciferase expression as a percentage” value (lipid/DNA 5 w/w) is 0.3%; the “Luciferase expression as a percentage” value (lipid/DNA 10 w/w) is listed as 0.4%; the “Luciferase expression as a percentage” value (lipid/DNA 15 w/w) worked out at 0.3%; the “Luciferase expression as a percentage” value (lipid/DNA 20 w/w) came to 0.3%; the “Luciferase expression as a percentage” value (lipid/DNA 25 w/w) worked out at 0.3%.
Take `CCCCCCCCCCCCCCOC(=O)CCN(CCC(=O)OCCCCCCCCCCCCCC)CCN1CCCCC1` [LF82]: the “Luciferase expression as a percentage” value by setting is: (lipid/DNA 2.5 w/w) 0.4%; (lipid/DNA 5 w/w) 0.3%; (lipid/DNA 10 w/w) 0.7%; (lipid/DNA 15 w/w) 0.5%; (lipid/DNA 20 w/w) 0.6%; (lipid/DNA 25 w/w) 0.8%.
With `CCCCCCCCCCCCOC(=O)CCN(CCC(=O)OCCCCCCCCCCCC)CCc1c[nH]cn1` [LD94], the “Luciferase expression as a percentage” value was determined as 1.5% (lipid/DNA 2.5 w/w); 5.9% (lipid/DNA 5 w/w); 2.0% (lipid/DNA 10 w/w); 8.5% (lipid/DNA 15 w/w); 9.2% (lipid/DNA 20 w/w); 7.3% (lipid/DNA 25 w/w).
For `CCCCCCCCCCCCCCOC(=O)CCN(CCC(=O)OCCCCCCCCCCCCCC)CCN(CC)CC` [LF75], the “Luciferase expression as a percentage” value is recorded as 0.7% (lipid/DNA 2.5 w/w); 1.0% (lipid/DNA 5 w/w); 0.7% (lipid/DNA 10 w/w); 1.9% (lipid/DNA 15 w/w); 1.7% (lipid/DNA 20 w/w); 1.7% (lipid/DNA 25 w/w).
Consider `CCCCCCCCCCCCCCCCCCOC(=O)CCN(CCCOC)CCC(=O)OCCCCCCCCCCCCCCCCCC` [LH1], for which the “Luciferase expression as a percentage” value is 0.0% (lipid/DNA 2.5 w/w); 0.0% (lipid/DNA 5 w/w); 0.0% (lipid/DNA 10 w/w); 0.0% (lipid/DNA 15 w/w); 0.0% (lipid/DNA 20 w/w); 0.0% (lipid/DNA 25 w/w).
As to `CCCCCCCCCCCCOC(=O)CC[N+](C)(CCC[N+](C)(CCO)CCO)CCC(=O)OCCCCCCCCCCCC.[I-].[I-]` [QD87], the “Luciferase expression as a percentage” value (lipid/DNA 10 w/w) came out at 0.5% and the “Luciferase expression as a percentage” value (lipid/DNA 15 w/w) was 0.7%.
For the compound `CCCCCCCCCCOC(=O)CCN(CCC(=O)OCCCCCCCCCC)CCC1CCCN1C` (centres unmarked) [LB77], the “Luciferase expression as a percentage” value is recorded as 0.1% (lipid/DNA 2.5 w/w); 0.1% (lipid/DNA 5 w/w); 0.1% (lipid/DNA 10 w/w); 0.2% (lipid/DNA 15 w/w); 0.1% (lipid/DNA 20 w/w); 0.3% (lipid/DNA 25 w/w).
